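Following 48 hours of exposure in 96-well plates, responses at five concentrations were used to interpolate endpoints linearly. The concentration for 50% growth inhibition is given as GI50.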 Active and inactive are the calls of the source. Cut-off read from the data, not from the text of the source: active = GI50 up to about 1.1 µM and inactive = higher.
Assays:
Assay in all cases: inhibition of tumour cell growth, NCI panel, 48 h
A549 = tested on: A549
HCC 2998 = tested on: HCC 2998
HL-60 = tested on: HL-60
LOX IMVI = tested on: LOX IMVI
MDA-MB-435 = tested on: MDA-MB-435
NCI-H226 = tested on: NCI-H226
NCI-H522 = tested on: NCI-H522
OVCAR-3 = tested on: OVCAR-3
OVCAR-4 = tested on: OVCAR-4
OVCAR-5 = tested on: OVCAR-5
PC-3 = tested on: PC-3
SNB-19 = tested on: SNB-19
SW-620 = tested on: SW-620
T47D = tested on: T47D
UACC-257 = tested on: UACC-257
UACC-62 = tested on: UACC-62
UO-31 = tested on: UO-31
HOP-62 = tested on: HOP-62
RXF 393 = tested on: RXF 393
SR = tested on: SR

Measured: GI50

COC(C)C(O)(C(=O)OCC1=CCN2CCC(O)C12)C(C)(C)O (configuration not stated)
inactive: A549 > 100 µM | HCC 2998 > 100 µM | HL-60 > 100 µM | LOX IMVI > 100 µM | MDA-MB-435 > 100 µM | NCI-H226 > 100 µM | NCI-H522 > 100 µM | OVCAR-3 > 100 µM | OVCAR-4 > 100 µM | OVCAR-5 > 100 µM | PC-3 > 100 µM | SNB-19 > 100 µM | SW-620 > 100 µM | T47D > 100 µM | UACC-257 > 100 µM | UACC-62 > 100 µM | UO-31 > 100 µM

COc1cc2oc(-c3ccc4c(c3)OCO4)c(OC)c(=O)c2c(OC)c1OC
inactive: A549 > 100 µM | HCC 2998 > 100 µM | HL-60 83.2 µM | HOP-62 27.4 µM | LOX IMVI > 100 µM | MDA-MB-435 > 100 µM | NCI-H226 > 100 µM | NCI-H522 > 100 µM | OVCAR-3 > 100 µM | OVCAR-4 > 100 µM | OVCAR-5 > 100 µM | PC-3 > 100 µM | RXF 393 32.7 µM | SNB-19 44.3 µM | SW-620 > 100 µM | T47D > 100 µM | UACC-257 > 100 µM | UACC-62 > 100 µM | UO-31 > 100 µM

O=C1c2c(Br)sc(Br)c2C(NC(=O)C(F)(F)F)C1O (configuration not stated)
inactive: A549 25.3 µM | HCC 2998 18.2 µM | HL-60 8.39 µM | LOX IMVI 21.8 µM | MDA-MB-435 23.5 µM | NCI-H226 29.5 µM | NCI-H522 13.3 µM | OVCAR-3 19.3 µM | OVCAR-4 19.9 µM | OVCAR-5 19.7 µM | PC-3 26.1 µM | RXF 393 13.3 µM | SNB-19 24.4 µM | SW-620 17.8 µM | T47D 24.4 µM | UACC-257 19.3 µM | UACC-62 20.3 µM | UO-31 22.4 µM

CCOC(=O)c1c(-c2ccccc2)c(OC)cn1C
inactive: A549 > 10 µM | HCC 2998 > 10 µM | HL-60 > 10 µM | HOP-62 > 10 µM | LOX IMVI > 10 µM | MDA-MB-435 > 10 µM | NCI-H226 > 10 µM | NCI-H522 > 10 µM | OVCAR-3 > 10 µM | OVCAR-4 > 10 µM | OVCAR-5 > 10 µM | PC-3 > 10 µM | RXF 393 > 10 µM | SNB-19 > 10 µM | SW-620 > 10 µM | T47D > 10 µM | UACC-257 > 10 µM | UACC-62 > 10 µM

O=c1c(O)c(-c2ccccc2)oc2c(CP(=O)(O)O)cccc12
inactive: A549 > 100 µM | HCC 2998 > 100 µM | HOP-62 8.55 µM | MDA-MB-435 > 100 µM | NCI-H522 > 100 µM | OVCAR-3 > 100 µM | OVCAR-4 > 100 µM | OVCAR-5 > 100 µM | PC-3 > 100 µM | RXF 393 > 100 µM | SR > 100 µM | T47D > 100 µM | UACC-257 > 100 µM | UACC-62 > 100 µM

[N-]=[N+]=CC(=O)CCC(=O)N(c1ccccc1)c1ccccc1
inactive: A549 > 10 µM | HL-60 > 10 µM | HOP-62 > 10 µM | LOX IMVI > 10 µM | MDA-MB-435 > 10 µM | NCI-H226 > 10 µM | OVCAR-3 > 10 µM | OVCAR-5 > 10 µM | PC-3 > 10 µM | RXF 393 > 10 µM | SNB-19 > 10 µM | SR > 10 µM | SW-620 > 10 µM | T47D > 10 µM | UACC-257 > 10 µM | UO-31 > 10 µM

CC(C)(C)OC(=O)NC(CSCc1ccc(C(=O)c2ccccc2)cc1)C(=O)N1CCN(CCCCN2c3ccccc3Sc3cc(N=[N+]=[N-])ccc32)CC1 (configuration not stated)
inactive: A549 > 100 µM | HCC 2998 > 100 µM | HL-60 > 100 µM | HOP-62 > 100 µM | LOX IMVI > 100 µM | MDA-MB-435 > 100 µM | NCI-H226 > 100 µM | NCI-H522 > 100 µM | OVCAR-3 > 100 µM | OVCAR-4 > 100 µM | OVCAR-5 > 100 µM | PC-3 > 100 µM | RXF 393 > 100 µM | SNB-19 > 100 µM | SW-620 > 100 µM | T47D > 100 µM | UACC-257 > 100 µM | UACC-62 > 100 µM | UO-31 > 100 µM

C=C1C(=O)O[C@@H]2[C@H]1C[C@@H](O)[C@H](C)[C@@](O)(C(=O)/C=C/C)[C@H]2OC(=O)C(C)CC (some centres not stated)
inactive: A549 15.2 µM | HCC 2998 14.5 µM | HOP-62 21 µM | LOX IMVI 2.93 µM | MDA-MB-435 3.29 µM | NCI-H226 43.4 µM | NCI-H522 1.26 µM | OVCAR-3 3.26 µM | OVCAR-4 6.97 µM | OVCAR-5 5.47 µM | PC-3 16.5 µM | RXF 393 2.15 µM | SNB-19 > 46.3 µM | SW-620 2.42 µM | T47D 5.7 µM | UACC-257 3.1 µM | UACC-62 15.5 µM | UO-31 1.82 µM

COc1cc(CNC(=O)[C@H](Cc2ccc(O)cn2)NC(C)=O)cc(OC)c1
inactive: A549 > 100 µM | HCC 2998 > 100 µM | HL-60 19.5 µM | HOP-62 > 100 µM | LOX IMVI > 100 µM | MDA-MB-435 > 100 µM | NCI-H226 > 100 µM | NCI-H522 > 100 µM | OVCAR-3 50.6 µM | OVCAR-4 > 100 µM | OVCAR-5 > 100 µM | PC-3 99.3 µM | RXF 393 > 100 µM | SNB-19 > 100 µM | SW-620 > 100 µM | T47D 75 µM | UACC-257 65.6 µM | UACC-62 80.9 µM | UO-31 > 100 µM

CC(=O)C(CN1C(=O)c2ccccc2C1=O)C(C)=O
inactive: A549 > 100 µM | HCC 2998 > 100 µM | HOP-62 > 100 µM | MDA-MB-435 > 100 µM | NCI-H226 > 100 µM | NCI-H522 > 100 µM | OVCAR-3 > 100 µM | OVCAR-4 > 100 µM | OVCAR-5 > 100 µM | PC-3 > 100 µM | RXF 393 23.1 µM | SNB-19 > 100 µM | SW-620 > 100 µM | T47D > 100 µM | UACC-257 > 100 µM | UACC-62 > 100 µM | UO-31 > 100 µM

COc1ccc(-c2nnc3nc4ccccc4n3c2O)cc1
inactive: A549 > 100 µM | HCC 2998 > 100 µM | HL-60 > 100 µM | HOP-62 > 100 µM | LOX IMVI > 100 µM | MDA-MB-435 > 100 µM | NCI-H226 > 100 µM | NCI-H522 > 100 µM | OVCAR-4 > 100 µM | OVCAR-5 > 100 µM | PC-3 > 100 µM | RXF 393 7.19 µM | SNB-19 > 100 µM | SW-620 > 100 µM | T47D > 100 µM | UACC-257 > 100 µM | UO-31 > 100 µM

— ChEMBL document CHEMBL1201862, “PubChem BioAssay data set” (2004)
